Experimental data taken from US12545718B2 (priority 2019, dated 2026).

System: B/Malaysia/2506/04 virus
Set-up: species or system BALB/c mice
Conditions: mouse, in vivo

Compound: CCOC(=O)C1=C[C@@H](OC(CC)CC)[C@H](NC(C)=O)[C@@H](N)C1 [oseltamivir, Oseltamivir phosphate]
- weight loss: does not protect from weight loss
